Data published in US10434142B2, “Compositions and methods of improved wound healing” (Chan Soon-Shiong Nanthealth Foundation, priority 2013, dated 2019).
Entries after “also recorded” stand apart in the source; their conditions may differ.

Tests used:
TLR5 = assay: IL-8 production, calcium flux agonist plus TLR5 ligand (FIGS. 2A-2E); type: cell-based; details: suboptimal doses: 20 nM thapsigargin, 316 nM A23187, 1 μM ionomycin, 10 μM cyclopiazonic acid, 31.6 μM DBHQ
Experimental: (§1) To investigate if that observation was also true for other pattern recognition receptors, and especially for TLR and NOD receptors and other ligands, the inventors tested numerous TLR and NOD receptors and various ligands.
(§2) The doses used in this experiment were 20 nM for thapsigargin, 316 nM for A23187, 1 μM for ionomycin, 10 μM for cyclopiazonic acid, and 31.6 μM for DBHQ.
(§3) Thus, a clear pattern of adjuvant activity of calcium flux agonists on the immune response, and especially on IL-8 production and NF-κB signaling is evident where the immune response is associated with a TLR- or NOD-mediated event.

TLR9 = assay: IL-8 production, calcium flux agonist plus TLR9 ligand (FIGS. 2A, 2B, 2E); type: cell-based; details: suboptimal doses: 20 nM thapsigargin, 316 nM A23187, 1 μM ionomycin
Experimental: as §1, §2, §3

TLR4 = assay: IL-8 production, calcium flux agonist plus TLR4 ligand (FIGS. 2A-2E); type: cell-based; details: suboptimal doses: 20 nM thapsigargin, 316 nM A23187, 1 μM ionomycin, 10 μM cyclopiazonic acid, 31.6 μM DBHQ
Experimental: as §1, §2, §3

NOD1 = assay: IL-8 production, calcium flux agonist plus NOD1 ligand (FIGS. 2A-2E); type: cell-based; details: suboptimal doses: 20 nM thapsigargin, 316 nM A23187, 1 μM ionomycin, 10 μM cyclopiazonic acid, 31.6 μM DBHQ
Experimental: as §1, §2, §3

TLR2 = assay: IL-8 production, calcium flux agonist plus TLR2 ligand (FIGS. 2A-2E); type: cell-based; details: suboptimal doses: 20 nM thapsigargin, 316 nM A23187, 1 μM ionomycin, 10 μM cyclopiazonic acid, 31.6 μM DBHQ
Experimental: as §1, §2, §3

κB-LUC THP-1 cells = assay: Activation of κB-LUC THP-1 cells by S. aureus conditioned/spent media (FIGS. 3A-3C); type: cell-based, human; details: for recognition of S. aureus conditioned/spent media (activation of κB-LUC THP-1 cells): suboptimal doses: thapsigargin, 316 nM A23187, 1 μM ionomycin
[1] = system: human THP-1 promonocytic leukemia cell line; assay: IL-8 production / cytokine release from THP-1 cells, TLR2 ligand with or without calcium flux agonist; type: cell-based; details: suboptimal dose of TLR2 ligand (Pam2CSK4 / Pam2CYS) plus suboptimal dose of agonist; beyond cumulative individual responses
Experimental: (§4) For example, human promonocytic THP-1 cells were incubated in the presence or absence of a suboptimal dose of the TLR2 ligand Pam2CSK4 and compared to similarly treated cells which also received suboptimal doses of ionophore (here: A23187 and ionomycin). […] In another example, KB-LUC THP-1 cells (a THP-1-derived transfectant line harboring an NF-κB-driven luciferase expression cassette) were cultivated in the presence or absence of a suboptimal dose of the TLR2 ligand Pam2CSK4 and compared to similarly treated cells that also received suboptimal doses of various SERCA inhibitors.
Here, the ionophores A23187 and ionomycin, as well as the SERCA inhibitor thapsigargin synergize with the TLR2 ligand (Pam2CYS) in the activation of cytokine release from the human THP-1 promonocytic leukemia cell line. It should be especially noted that while the TLR2 ligand alone provided for about 5 ng/ml IL-8 response, addition of a suboptimal dose of the calcium flux agonists (e.g. 20 nM for thapsigargin, 316 nM for A23187, and 1 μM for ionomycin) produced more than 10-fold quantities of IL-8 production in the cells.

NOD2 = assay: IL-8 production, calcium flux agonist plus NOD2 ligand (FIGS. 2A-2E); type: cell-based; details: suboptimal doses: 20 nM thapsigargin, 316 nM A23187, 1 μM ionomycin, 10 μM cyclopiazonic acid, 31.6 μM DBHQ
Experimental: as §1, §2, §3

KB-LUC THP-1 cells = assay: NF-κB-driven luciferase in KB-LUC THP-1 cells, TLR2 ligand Pam2CSK4 with or without SERCA inhibitor; type: cell-based, human; details: suboptimal dose of Pam2CSK4 plus suboptimal dose of SERCA inhibitor; beyond cumulative individual responses
Experimental: as §4

CNc1ccc2oc(C[C@H]3O[C@@]4(CC[C@H]3C)O[C@H]([C@H](C)C(=O)c3ccc[nH]3)[C@H](C)C[C@H]4C)nc2c1C(=O)O [A23187]
synergistic effect to augment cellular response (IL-8 production) for TLR5 (TLR5): synergistic effect | synergistic effect to augment cellular response (IL-8 production) for TLR9 (TLR9): synergistic effect | synergistic effect to augment cellular response (IL-8 production) for TLR4 (TLR4): synergistic effect | synergistic effect to augment cellular response (IL-8 production) for NOD1 (NOD1): synergistic effect | synergistic effect to augment cellular response (IL-8 production) for TLR2 (TLR2): synergistic effect | recognition of S. aureus conditioned/spent media (activation of κB-LUC THP-1 cells) (κB-LUC THP-1 cells): significantly enhanced | synergy with TLR2 ligand in IL-8 production / cytokine release [1]: significantly increased; also recorded: synergize | synergistic effect to augment cellular response (IL-8 production) for NOD2 (NOD2): synergistic effect

CC(C)(C)c1cc(O)c(C(C)(C)C)cc1O [DBHQ, 2,5-di(tert-butyl) hydroquinone]
synergistic effect to augment cellular response (IL-8 production) for TLR5 (TLR5): synergistic effect | synergistic effect to augment cellular response (IL-8 production) for TLR4 (TLR4): synergistic effect | synergistic effect to augment cellular response (IL-8 production) for NOD1 (NOD1): synergistic effect | synergistic effect to augment cellular response (IL-8 production) for TLR2 (TLR2): synergistic effect | synergistic effect to augment cellular response (IL-8 production) for NOD2 (NOD2): synergistic effect

O=C(O)CN(CCOCCOCCN(CC(=O)O)CC(=O)O)CC(=O)O [EGTA]
effect on calcium flux-induced synergy (κB-LUC THP-1 cells; extracellular chelator added at 1 mM): inhibited

C[C@H](CCC(=O)O)C[C@H](C)C[C@H](C)C(=O)/C=C(\O)[C@H](C)C[C@H](C)C/C=C/[C@@H](C)[C@@H](O)[C@@H](C)[C@@H](O)C[C@@H]1CC[C@@](C)([C@H]2CC[C@@](C)([C@@H](C)O)O2)O1 [ionomycin]
synergistic effect to augment cellular response (IL-8 production) for TLR5 (TLR5): synergistic effect | synergistic effect to augment cellular response (IL-8 production) for TLR9 (TLR9): synergistic effect | synergistic effect to augment cellular response (IL-8 production) for TLR4 (TLR4): synergistic effect | synergistic effect to augment cellular response (IL-8 production) for NOD1 (NOD1): synergistic effect | synergistic effect to augment cellular response (IL-8 production) for TLR2 (TLR2): synergistic effect | recognition of S. aureus conditioned/spent media (activation of κB-LUC THP-1 cells) (κB-LUC THP-1 cells): significantly enhanced | synergy with TLR2 ligand in IL-8 production / cytokine release [1]: significantly increased; also recorded: synergize | synergistic effect to augment cellular response (IL-8 production) for NOD2 (NOD2): synergistic effect

C/C=C(/C)C(=O)O[C@H]1C(C)=C2[C@H]([C@@H]1OC(=O)CCCCCCC)[C@@](C)(OC(C)=O)C[C@H](OC(=O)CCC)[C@@]1(O)[C@H]2OC(=O)[C@@]1(C)O [thapsigargin]
synergistic effect to augment cellular response (IL-8 production) for TLR5 (TLR5): synergistic effect | synergistic effect to augment cellular response (IL-8 production) for TLR9 (TLR9): synergistic effect | synergistic effect to augment cellular response (IL-8 production) for TLR4 (TLR4): synergistic effect | synergistic effect to augment cellular response (IL-8 production) for NOD1 (NOD1): synergistic effect | synergistic effect to augment cellular response (IL-8 production) for TLR2 (TLR2): synergistic effect | recognition of S. aureus conditioned/spent media (activation of κB-LUC THP-1 cells) (κB-LUC THP-1 cells): significantly enhanced | synergy with TLR2 ligand in IL-8 production / cytokine release [1]: synergize | synergistic effect to augment cellular response (IL-8 production) for NOD2 (NOD2): synergistic effect | amount of luciferase produced (NF-κB-driven), synergy with TLR2 ligand (KB-LUC THP-1 cells): significantly increased
